This note sets out measurements from the NIST ThermoML archive (doi:10.1021/je7000733).

The conditions of series [1]: Liquid; for mass density: 293.1 K, 101.33 kPa, Vibrating tube method; for Normal boiling temperature: Fisher boiling point apparatus.
Series [2] in a line: refractive index (Na D-line) (dimensionless). The note with it: 293.1 K; 101.33 kPa; Liquid; Standard Abbe refractometry.

The term mass density denotes the mass of a sample divided by its volume. As usually defined, the refractive index is the speed of light in vacuum divided by its phase velocity in the sample.

± gives the expanded uncertainty stated by the source.

In the case of `CC(=O)O` [acetic acid], in series [1], the mass density was 1044.3 ± 0.27 kg/m3 and the Normal boiling temperature was found to be 118.00 ± 0.2 °C. For the same compound, the refractive index in series [2] is on record as 1.37201 ± 0.0007.
For `CCOC(=O)CCCCC(=O)OCC` [diethyl hexanedioate] the same measures were 1007.63 ± 0.24 kg/m3, 245.20 ± 0.2 °C and 1.42725 ± 0.0007.
For `CCOC(=O)CCC(=O)OCC` [diethyl butanedioate] the same measures were 1040.22 ± 0.27 kg/m3, 217.70 ± 0.2 °C and 1.42014 ± 0.0007.
As for `CCOC(=O)CCCC(=O)OCC` [diethyl glutarate], in series [1], the mass density is 1022.04 ± 0.88 kg/m3 and the Normal boiling temperature came out at 236.50 ± 0.2 °C. Also, in series [2], the refractive index turned out to be 1.42414 ± 0.00078.
